Measured values taken from patent publication US6410573B1, “2,5-substituted benzolsulfonylureas and thioureas methods for the production thereof use thereof and pharmaceutical preparations containing the same” (Aventis Pharma Deutschland GmbH, priority 1998, dated 2002).

Tests used:
RINm5F cells = test: Membrane potential on isolated β cells (whole-cell patch clamp, RINm5F cells); type: cell-based; conditions: 1 μmol/l test substance, diaxozide 100 μmol/l in bath, 34±1° C., control potential before addition −70 to −78 mV
Source text: Test 2: Membrane potential on isolated β cells
The mechanism of action of the hypoglycemic sulfonylureas such as, for example, glibenclamide has been elucidated in broad outline. The target organ of the sulfonylureas is the β cell of the pancreas, where they contribute to the release of the hypoglycemic hormone insulin by influencing the electrical potential of the cell membrane. A hypoglycemic sulfonylurea such as, for example, glibenclamide brings about a depolarization of the cell membrane, which leads to a […] influx of calcium ions and as a consequence of this to insulin release. The extent ΔU of this depolarization of the cell membrane by the test substances was determined on insulin-secreting RINm5F cells, a pancreas tumor cell line. The potency of a compound in this model predicts the extent of the […] potential of this compound.
Cell cultures of RINm5F cells: RINm5F cells were cultured at 37° C. in RPMI 1640 culture medium (Flow), to which 11 mmol/l of glucose, 10% (v/v) fetal calf serum, 2 mmol/l of glutamine and 50 μg/ml of gentamycin were added. The cells were inoculated onto petri dishes every 2 to 3 days and kept in a humidified atmosphere of […] and 5% CO2 at a temperature of 37° C. For the investigations, the cells were isolated by incubation (about 3 min) in a Ca^2+-free medium which contains 0.25% trypsin.
Measuring method: in a Plexiglas chamber, isolated RINm5F cells were applied to an inverted microscope which was equipped with differential interference contrast optics. Under visual control (400× magnification), a fire-polished micropipette having an opening diameter of approximately 1 μm was placed onto the cell with the aid of a micromanipulator. By applying a slight underpressure to the interior of the patch pipette, a high electrical seal between the glass and cell membrane was first produced. Then, by increasing the underpressure, the membrane spot under the measuring pipette was torn off. In this whole-cell configuration, the cell potential was recorded with the aid of a patch clamp amplifier (L/M EPC 7, List, Darmstadt) and the whole-cell current was measured by applying a voltage ramp. […] Stock solutions of the test substances in a concentration of 100 mmol/l in DMSO and corresponding dilutions in an NaCl solution were prepared. DMSO on its own had no effect on the cell potential. In order to stabilize the cell potential, diaxozide (100 μmol/l), an opener for ATP-sensitive K^+ channels, was added to the bath solution in all experiments. All experiments were carried out at 34±1° C.

[1] = tested on: papillary muscle of the guinea pig; test: Action potential duration (APD90) in the papillary muscle of the guinea pig, shortened by rilmakalim (HOE 234); type: cell-based; conditions: test substance 2 μmol/l, 60 min after its addition; rilmakalim (HOE 234) 1 μg/ml given 30 min before; starting values 165-191, after HOE 234 alone 18-37; 37° C., 1 Hz
Source text: Test 1: Action potential duration in the papillary muscle of the guinea pig
ATP deficiency states, such as are observed during ischemia in the cardiac muscle cell, lead to a reduction of the action potential duration. They are regarded as one of the causes of so-called reentry arrhythmias, which can cause sudden heart death. The opening of ATP-sensitive potassium channels by the lowering of ATP (adenosine triphosphate) is regarded as causing this.
A standard microelectrode technique was employed for the measurement of the action potential in the papillary muscle of the guinea pig. For this guinea pigs of both sexes were killed by a blow to the head, the hearts were removed, the papillary muscles were separated out and suspended in an organ bath. The organ bath was irrigated with Ringer's solution (136 mmol/l of NaCl, 3.3 mmol/l of KCl, 2.5 mmol/l of CaCl2, 1.2 mmol/l of KH2PO4, 1.1 mmol/l of MgSO4, 5.0 mmol/l of glucose, 10.0 mmol/l of N-(2-hydroxyethyl)piperazine-N′-(2-ethanesulfonic acid) (HEPES), pH adjusted to 7.4 with NaOH) and aerated with 100% oxygen at a temperature of 37° C. The muscle was stimulated by means of an electrode using squarewave impulses of 1 V and 1 ms duration and a frequency of 1 Hz. The action potential was derived and recorded by means of a glass microelectrode inserted intracellularly, which is filled with 3 mol/l of KCl solution. The substance to be tested was added to the Ringer's solution in a concentration of 2 μmol/l. The action potential was amplified using an amplifier from Hugo Sachs (March-Hugstetten, Germany) and stored and analyzed by means of a computer. The duration of the action potential was determined at a degree of repolarization of 90% (APD90). The action potential reduction was produced by addition of a solution of the potassium channel opener rilmakalim (HOE 234) (W. Linz, E. Klaus, U. Albus, R. H. A. Becker, D. Mania, H. C. Englert, B. A. Schölkens, Arzneimittelforschung/Drug Research, 42 (II) (1992) 1180-1185) (rilmakalim concentration 1 μg/ml). 30 minutes after the administration of rilmakalim, the action potential duration APD90 was recorded. The test substance was then added and the action potential duration APD90, which was extended again, was recorded after a further 60 minutes. The test substances were added to the bath solution as stock solutions in propanediol.

Structure (SMILES) | melting point | ΔU (depolarization of the cell potential) (RINm5F cells) | APD90 +HOE 234, 30 min., then +substance, 60 min. [1]
COc1ccc(Cl)cc1C(=O)NCCc1ccc(S(=O)(=O)NC(=O)NC2CCCCC2)cc1 [Glibenclamide, reference compound] |  | 47 mV | 
CNC(=S)NS(=O)(=O)c1cc(CCNC(=O)c2cc(Cl)ccc2OC)ccc1-c1ccccn1 [Example 16, 5-(2-(5-Chloro-2-methoxybenzamido)ethyl)-N-(methylaminothiocarbonyl)-2-(2-pyridyl)benzenesulfonamide] |  |  | 153 milliseconds
CNC(=S)NS(=O)(=O)c1cc(CCNC(=O)c2cc(Cl)ccc2OC)ccc1-c1ccc(Cl)cc1 [Example 8, 5-(2-(5-Chloro-2-methoxybenzamido)ethyl)-2-(4-chlorophenyl)-N-(methyl-aminothiocarbonyl)benzenesulfonamide] | 189 to 192 °C |  | 
CNC(=O)NS(=O)(=O)c1cc(CCNC(=O)c2cc(Cl)ccc2OC)ccc1-c1ccco1 [Example 15, 5-(2-(5-Chloro-2-methoxybenzamido)ethyl)-2-(2-furyl)-N-(methylaminocarbonyl)benzenesulfonamide] |  |  | 83 milliseconds
CNC(=S)NS(=O)(=O)c1cc(CCNC(=O)c2cc(Cl)ccc2OC)ccc1-c1ccccc1 [Example 1, 5-(2-(5-Chloro-2-methoxybenzamido)ethyl)-N-(methylaminothiocarbonyl)-2-phenylbenzenesulfonamide] |  | 6 mV | 134 milliseconds
CNC(=O)NS(=O)(=O)c1cc(CCNC(=O)c2cc(Cl)ccc2OC)ccc1-c1cccs1 [Example 13, 5-(2-(5-Chloro-2-methoxybenzamido)ethyl)-N-(methylaminocarbonyl)-2-(2-thienyl)benzenesulfonamide] |  |  | 72 milliseconds
CNC(=S)NS(=O)(=O)c1cc(CCNC(=O)c2cc(Cl)ccc2OC)ccc1Sc1ccccc1 [Example 20, 5-(2-(5-Chloro-2-methoxybenzamido)ethyl)-N-(methylaminothiocarbonyl)-2-(phenylsulfanyl)benzenesulfonamide] |  |  | 139 milliseconds
CNC(=S)NS(=O)(=O)c1cc(CCNC(=O)c2cc(Cl)ccc2OC)ccc1-c1ccc(F)cc1 [Example 7, 5-(2-(5-Chloro-2-methoxybenzamido)ethyl)-2-(4-fluorophenyl)-N-(methyl-aminothiocarbonyl)benzenesulfonamide] |  |  | 71 milliseconds
CCNC(=O)NS(=O)(=O)c1cc(CCNC(=O)c2cc(Cl)ccc2OC)ccc1-c1ccccc1 [Example 4, 5-(2-(5-Chloro-2-methoxybenzamido)ethyl)-N-(ethylaminocarbonyl)-2-phenylbenzenesulfonamide] |  |  | 81 milliseconds

The next lines start with results.

melting point | Structure (SMILES) | ΔU (depolarization of the cell potential) (RINm5F cells) | APD90 +HOE 234, 30 min., then +substance, 60 min. [1]
178 to 179 °C | CCNC(=S)NS(=O)(=O)c1cc(CCNC(=O)c2cc(Cl)ccc2OC)ccc1-c1ccc(SC)cc1 [Example 10, 5-(2-(5-Chloro-2-methoxybenzamido)ethyl)-N-(ethylaminothiocarbonyl)-2-(4-methylthiophenyl)benzenesulfonamide] |  | 
185 to 188 °C | CNC(=S)NS(=O)(=O)c1cc(CCNC(=O)c2cc(Cl)ccc2OC)ccc1-c1ccc(OC)cc1 [Example 9, 5-(2-(5-Chloro-2-methoxybenzamido)ethyl)-2-(4-methoxyphenyl)-N-(methylaminothiocarbonyl)benzenesulfonamide] | 15 mV | 
160 °C | CNC(=O)NS(=O)(=O)c1cc(CCNC(=O)c2cc(Cl)ccc2OC)ccc1-c1ccccn1 [Example 17, 5-(2-(5-Chloro-2-methoxybenzamido)ethyl)-N-(methylaminocarbonyl)-2-(2-pyridyl)benzenesulfonamide] |  | 
224 to 225 °C | C#Cc1ccc(CCNC(=O)c2cc(Cl)ccc2OC)cc1S(=O)(=O)NC(=S)NC [Example 19, 5-(2-(5-Chloro-2-methoxybenzamido)ethyl)-2-ethynyl-N-(methylaminothiocarbonyl)benzenesulfonamide] |  | 
189 to 191 °C | CNC(=S)NS(=O)(=O)c1cc(CCNC(=O)c2cc(Cl)ccc2OC)ccc1-c1cccs1 [Example 12, 5-(2-(5-Chloro-2-methoxybenzamido)ethyl)-N-(methylaminothiocarbonyl)-2-(2-thienyl)benzenesulfonamide] | 5 mV | 
168 to 170 °C | CCNC(=S)NS(=O)(=O)c1cc(CCNC(=O)c2cc(Cl)ccc2OC)ccc1-c1ccccc1 [Example 3, 5-(2-(5-Chloro-2-methoxybenzamido)ethyl)-N-(ethylaminothiocarbonyl)-2-phenylbenzenesulfonamide] |  | 
145 to 146 °C | CNC(=S)NS(=O)(=O)c1cc(CCNC(=O)c2cc(Cl)ccc2OC)ccc1-c1ccco1 [Example 14, 5-(2-(5-Chloro-2-methoxybenzamido)ethyl)-2-(2-furyl)-N-(methylaminothiocarbonyl)benzenesulfonamide] | 7 mV | 
124 to 126 °C | C=CCc1ccc(CCNC(=O)c2cc(Cl)ccc2OC)cc1S(=O)(=O)NC(=O)NC [Example 18, 2-Allyl-5-(2-(5-chloro-2-methoxybenzamido)ethyl)-N-(methylaminocarbonyl)benzenesulfonamide] |  | 
